In patent US9676782B2, “Substituted pyrazolo[1,5-a]pyrazines as negative allosteric modulators of metabotropic glutamate receptor 3” (Vanderbilt University, priority 2014, dated 2017):
pEC50, pIC50: −log10 of the molar value. Like-named read-outs stand apart in the source and are kept apart here.

Columns and labels:
rat mGlu5 = rat mGlu5 (Rattus norvegicus (Rat), UniProt P31424); experiment: mGlu5 Ca2+ flux assay; type: cell-based; details: for Fold selectivity (mGlu3 vs. mGlu5): ratio of rat mGlu5 EC50 or IC50 to rat mGlu3 IC50; for pIC50: glutamate EC80; for Emax at 30 µM: read-out: rat mGlu5 Glu max (%)
Chain of rat mGlu5 (P31424 21-1203): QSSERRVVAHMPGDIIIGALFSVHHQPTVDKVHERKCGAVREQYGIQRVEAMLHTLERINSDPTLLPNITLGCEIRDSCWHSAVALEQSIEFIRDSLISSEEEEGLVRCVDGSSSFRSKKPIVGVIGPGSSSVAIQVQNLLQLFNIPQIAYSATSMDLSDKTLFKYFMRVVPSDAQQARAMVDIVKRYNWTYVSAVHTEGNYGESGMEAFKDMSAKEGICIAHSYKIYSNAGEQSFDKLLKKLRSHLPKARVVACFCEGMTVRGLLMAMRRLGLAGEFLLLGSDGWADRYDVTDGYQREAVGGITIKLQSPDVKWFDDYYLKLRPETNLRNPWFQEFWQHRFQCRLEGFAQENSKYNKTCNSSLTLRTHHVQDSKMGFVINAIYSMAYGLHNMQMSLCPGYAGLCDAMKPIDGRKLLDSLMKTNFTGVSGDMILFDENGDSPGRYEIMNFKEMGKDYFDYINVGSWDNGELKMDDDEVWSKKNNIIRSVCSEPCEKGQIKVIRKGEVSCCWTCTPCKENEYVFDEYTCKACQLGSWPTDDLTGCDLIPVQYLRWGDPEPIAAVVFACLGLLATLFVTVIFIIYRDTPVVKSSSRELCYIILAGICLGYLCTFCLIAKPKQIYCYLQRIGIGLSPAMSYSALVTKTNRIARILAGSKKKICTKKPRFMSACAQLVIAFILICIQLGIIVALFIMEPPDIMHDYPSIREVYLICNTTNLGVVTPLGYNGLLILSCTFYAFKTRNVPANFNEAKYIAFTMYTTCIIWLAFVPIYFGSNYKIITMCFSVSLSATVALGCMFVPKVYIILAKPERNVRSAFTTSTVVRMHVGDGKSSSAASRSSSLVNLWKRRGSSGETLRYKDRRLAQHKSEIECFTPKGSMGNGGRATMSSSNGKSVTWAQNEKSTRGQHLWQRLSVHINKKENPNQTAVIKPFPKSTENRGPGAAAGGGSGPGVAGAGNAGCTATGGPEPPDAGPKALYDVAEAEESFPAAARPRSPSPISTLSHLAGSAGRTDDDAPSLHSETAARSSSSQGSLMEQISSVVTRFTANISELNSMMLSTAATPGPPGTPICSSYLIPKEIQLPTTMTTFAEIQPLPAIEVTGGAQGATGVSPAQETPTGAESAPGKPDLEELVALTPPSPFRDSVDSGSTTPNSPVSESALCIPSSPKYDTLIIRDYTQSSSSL
Procedure, shortened: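 Ca2+ flux read kinetically (FDSS7000) after overnight culture at 37° C/5% CO2 and a 5 min room-temperature buffer step following dye removal. Signals expressed per well as F/F0 and normalized to peak glutamate response; EC50 fitted by free 4-parameter logistic, three replicates per concentration equally weighted.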

rat mGlu3 = rat mGlu3 (Rattus norvegicus (Rat), UniProt P31422); experiment: mGlu3 Ca2+ flux assay; type: cell-based; details: for remaining activity at 30 µM: amplitude of response at 30 μM test compound as % of maximal response to glutamate, read-out: rat mGlu3 Glu max (%)
Chain of rat mGlu3 (P31422 23-879): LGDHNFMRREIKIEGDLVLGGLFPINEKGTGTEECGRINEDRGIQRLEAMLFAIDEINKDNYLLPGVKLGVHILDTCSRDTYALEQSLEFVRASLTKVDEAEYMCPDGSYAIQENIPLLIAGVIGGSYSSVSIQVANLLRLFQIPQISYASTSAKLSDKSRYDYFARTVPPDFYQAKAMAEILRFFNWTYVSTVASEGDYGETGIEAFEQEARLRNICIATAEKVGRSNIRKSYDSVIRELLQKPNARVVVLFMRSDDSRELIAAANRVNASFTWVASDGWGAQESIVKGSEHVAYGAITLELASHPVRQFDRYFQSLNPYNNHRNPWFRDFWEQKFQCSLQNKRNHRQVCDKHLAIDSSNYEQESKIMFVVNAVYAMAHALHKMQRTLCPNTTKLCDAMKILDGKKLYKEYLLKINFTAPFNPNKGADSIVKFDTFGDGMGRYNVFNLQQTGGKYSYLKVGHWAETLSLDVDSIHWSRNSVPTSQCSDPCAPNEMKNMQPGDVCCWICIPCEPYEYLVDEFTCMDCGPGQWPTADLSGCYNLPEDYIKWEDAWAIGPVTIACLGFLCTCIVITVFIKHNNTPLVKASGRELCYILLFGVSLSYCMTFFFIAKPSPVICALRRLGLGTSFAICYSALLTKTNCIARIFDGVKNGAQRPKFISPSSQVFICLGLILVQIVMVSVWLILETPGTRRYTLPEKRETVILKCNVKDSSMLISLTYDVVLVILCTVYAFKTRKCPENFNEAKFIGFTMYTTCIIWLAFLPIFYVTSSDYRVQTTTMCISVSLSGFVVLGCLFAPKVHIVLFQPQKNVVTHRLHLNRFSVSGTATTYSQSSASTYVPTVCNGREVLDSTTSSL
Procedure, shortened: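 This calcium mobilization assay used rat mGlu3 cells cultured overnight (37° C., 5% CO2) and read on the FDSS7000 after a 10 minute room-temperature incubation in 20 μL assay buffer. Each of 360 readings per well was divided by its initial value (F/F0). Potency came from fitting normalized responses against log concentration with an unconstrained 4 parameter logistic equation, weighting triplicate points equally.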

[1] = read-out: rat mGlu5 EC50 or IC50
[2] = NAM potency, decrease of glutamate EC80 response, >30,000 = no measurable activity, >10,000 = no plateau, read-out: rat mGlu3 IC50
[3] = compound noted as NAM or partial antagonist (PAnt) at mGlu5, read-out: rat mGlu5 EC50 or IC50
[4] = compound noted as NAM or partial antagonist (PAnt) at mGlu5, response at 30 μM as % of maximal glutamate response
[5] = PAM, amplitude of response at 30 μM test compound as % of maximal response to glutamate
[6] = Table 2 compounds with X = NH, response at 30 μM compound as percentage of maximal glutamate response

SMILES	Fold selectivity (mGlu3 vs. mGlu5) (rat mGlu5)	pEC50 (rat mGlu5; [1])	remaining activity at 30 µM (rat mGlu3)	pIC50 (rat mGlu3; read-out: rat mGlu3 IC50)	pIC50 (rat mGlu3; [2])	pIC50 (rat mGlu5; [3])	Emax at 30 µM (rat mGlu5; [4])	Emax at 30 µM (rat mGlu5; [5])	pEC50 (rat mGlu5; Table 2 compounds with X = NH, read-out: mGlu5 EC50)	mGlu5 Glu max (rat mGlu5; [6])	pIC50 (rat mGlu3; Table 2 compounds with X = NH, read-out: mGlu3 IC50)	mGlu3 Glu max (rat mGlu3; [6])
O=C1c2cc(CNc3ccc(OC(F)F)cc3F)nn2CCN1c1ccc(Cl)cc1F [Compound 149, 5-(4-chloro-2-fluorophenyl)-2-(((4-(difluoromethoxy)-2-fluorophenyl)amino)methyl)-6,7-dihydropyrazolo[1,5-a]pyrazin-4(5H)-one]	>3	< 4.52	25.8%	< 5.00	–	–	–	–	–	–	–	–
O=C1c2cc(CNc3ccc(OC(F)F)cc3F)nn2CCN1c1cccc(Cl)c1 [Compound 150, 5-(3-chlorophenyl)-2-(((4-(difluoromethoxy)-2-fluorophenyl)amino)methyl)-6,7-dihydropyrazolo[1,5-a]pyrazin-4(5H)-one]	>21	< 4.52	2.97%	–	5.86	–	–	–	–	–	–	–
O=C1c2cc(CNc3ccc(OC(F)F)cc3F)nn2CCN1c1ccccn1 [Compound 151, 2-(((4-(difluoromethoxy)-2-fluorophenyl)amino)methyl)-5-(pyridin-2-yl)-6,7-dihydropyrazolo[1,5-a]pyrazin-4(5H)-one]	>31	< 4.52	1.14%	–	6.03	–	–	–	–	–	–	–
O=C1c2cc(CNc3ccc(OC(F)F)cc3F)nn2CCN1c1cc(F)cc(F)c1 [Compound 152, 2-(((4-(difluoromethoxy)-2-fluorophenyl)amino)methyl)-5-(3,5-difluorophenyl)-6,7-dihydropyrazolo[1,5-a]pyrazin-4(5H)-one]	>28	< 4.52	2.23%	–	5.97	–	–	–	–	–	–	–
O=C1c2cc(CNc3ccc(OC(F)F)cc3F)nn2CCN1c1ccccc1F [Compound 153, 2-(((4-(difluoromethoxy)-2-fluorophenyl)amino)methyl)-5-(2-fluorophenyl)-6,7-dihydropyrazolo[1,5-a]pyrazin-4(5H)-one]	>38	< 4.52	2.29%	–	6.11	–	–	–	–	–	–	–
O=C1c2cc(CNc3ccc(F)cn3)nn2CCN1c1ccc(F)cc1 [Compound 155, 5-(4-fluorophenyl)-2-(((5-fluoropyridin-2-yl)amino)methyl)-6,7-dihydropyrazolo[1,5-a]pyrazin-4(5H)-one]	>6.8	–	1.5%	–	5.84	< 5.00	11.3%	–	–	–	–	–
O=C1c2cc(CNc3ccccn3)nn2CCN1c1ccc(F)cc1 [Compound 156, 5-(4-fluorophenyl)-2-((pyridin-2-ylamino)methyl)-6,7-dihydropyrazolo[1,5-a]pyrazin-4(5H)-one]	>3.1	–	-1.17%	–	5.50	< 5.00	49.1%	–	–	–	–	–
Cc1cccc(NCc2cc3n(n2)CCN(c2ccc(F)cc2)C3=O)n1 [Compound 157, 5-(4-fluorophenyl)-2-(((6-methylpyridin-2-yl)amino)methyl)-6,7-dihydropyrazolo[1,5-a]pyrazin-4(5H)-one]	>9.3	< 4.52	-0.19%	–	5.49	–	–	–	–	–	–	–
O=C1c2cc(CNc3ccc(Cl)cn3)nn2CCN1c1ccc(F)cc1 [Compound 158, 2-(((5-chloropyridin-2-yl)amino)methyl)-5-(4-fluorophenyl)-6,7-dihydropyrazolo[1,5-a]pyrazin-4(5H)-one]	4.02	–	1.27%	–	6.22	5.62	73.6%	–	–	–	–	–
Cc1ccc(NCc2cc3n(n2)CCN(c2ccc(F)cc2)C3=O)nc1 [Compound 159, 5-(4-fluorophenyl)-2-(((5-methylpyridin-2-yl)amino)methyl)-6,7-dihydropyrazolo[1,5-a]pyrazin-4(5H)-one]	>16	< 4.52	0.86%	–	5.75	–	–	–	–	–	–	–
Cc1cccnc1NCc1cc2n(n1)CCN(c1ccc(F)cc1)C2=O [Compound 160, 5-(4-fluorophenyl)-2-(((3-methylpyridin-2-yl)amino)methyl)-6,7-dihydropyrazolo[1,5-a]pyrazin-4(5H)-one]	>6.3	< 4.52	0.18%	–	5.33	–	–	–	–	–	–	–
Cc1ccnc(NCc2cc3n(n2)CCN(c2ccc(F)cc2)C3=O)c1 [Compound 161, 5-(4-fluorophenyl)-2-(((4-methylpyridin-2-yl)amino)methyl)-6,7-dihydropyrazolo[1,5-a]pyrazin-4(5H)-one]	>8.0	< 4.52	1.14%	–	5.43	–	–	–	–	–	–	–
O=C1c2cc(CNc3ncccc3C(F)(F)F)nn2CCN1c1ccc(F)cc1 [Compound 162, 5-(4-fluorophenyl)-2-(((3-(trifluoromethyl)pyridin-2-yl)amino)methyl)-6,7-dihydropyrazolo[1,5-a]pyrazin-4(5H)-one]	>7.8	< 4.52	0.79%	–	5.42	–	–	–	–	–	–	–
O=C1c2cc(CNc3cccc(Cl)n3)nn2CCN1c1ccc(F)cc1 [Compound 163, 2-(((6-chloropyridin-2-yl)amino)methyl)-5-(4-fluorophenyl)-6,7-dihydropyrazolo[1,5-a]pyrazin-4(5H)-one]	>25	< 4.52	1.15%	–	5.93	–	–	–	–	–	–	–
O=C1c2cc(CNc3cc(Cl)ccn3)nn2CCN1c1ccc(F)cc1 [Compound 164, 2-(((4-chloropyridin-2-yl)amino)methyl)-5-(4-fluorophenyl)-6,7-dihydropyrazolo[1,5-a]pyrazin-4(5H)-one]	>7.5	< 5.00	2.99%	–	5.88	–	–	35.3%	–	–	–	–
O=C1c2cc(CNc3ncccc3F)nn2CCN1c1ccc(F)cc1 [Compound 165, 5-(4-fluorophenyl)-2-(((3-fluoropyridin-2-yl)amino)methyl)-6,7-dihydropyrazolo[1,5-a]pyrazin-4(5H)-one]	>14	< 4.52	1.66%	–	5.68	–	–	–	–	–	–	–
O=C1c2cc(CNc3cccc(C(F)(F)F)n3)nn2CCN1c1ccc(F)cc1 [Compound 166, 5-(4-fluorophenyl)-2-(((6-(trifluoromethyl)pyridin-2-yl)amino)methyl)-6,7-dihydropyrazolo[1,5-a]pyrazin-4(5H)-one]	>4.2	< 5.00	2.06%	–	5.63	–	–	50.6%	–	–	–	–
CCCN(Cc1cc2n(n1)CCN(c1ccc(F)c(F)c1)C2=O)c1ccc(OC)cc1 [Compound 167, 5-(3,4-Difluorophenyl)-2-(((4-methoxyphenyl)(propyl)amino)methyl)-6,7-dihydropyrazolo[1,5-a]pyrazin-4(5H)-one]	8.06	< 4.52	1.32%	5.43	–	–	–	–	–	–	–	–
CCN(Cc1cc2n(n1)CCN(c1ccc(F)c(F)c1)C2=O)c1ccc(OC)cc1 [Compound 168, 5-(3,4-difluorophenyl)-2-((ethyl(4-methoxyphenyl)amino)methyl)-6,7-dihydropyrazolo[1,5-a]pyrazin-4(5H)-one]	>14	< 4.52	1.95%	5.67	–	–	–	–	–	–	–	–
COc1ccc(NC(C)c2cc3n(n2)CCN(c2ccc(F)cc2)C3=O)cc1 (centres unmarked) [Compound 169, 5-(4-Fluorophenyl)-2-(1-((4-methoxyphenyl)amino)ethyl)-6,7-dihydropyrazolo[1,5-a]pyrazin-4(5H)-one]	>3.8	< 4.52	-6.64%	–	5.11	–	–	–	–	–	–	–
CC(Nc1ccccc1)c1cc2n(n1)CCN(c1ccc(F)cc1)C2=O (centres unmarked) [Compound 170, 5-(4-fluorophenyl)-2-(1-(phenylamino)ethyl)-6,7-dihydropyrazolo[1,5-a]pyrazin-4(5H)-one]	>10	< 4.52	0.67%	–	5.55	–	–	–	–	–	–	–
CC(Nc1ccc(F)cc1)c1cc2n(n1)CCN(c1ccc(F)cc1)C2=O (centres unmarked) [Compound 171, 5-(4-fluorophenyl)-2-(1-((4-fluorophenyl)amino)ethyl)-6,7-dihydropyrazolo[1,5-a]pyrazin-4(5H)-one]	>13	< 4.52	0.39%	–	5.67	–	–	–	–	–	–	–
CC(Nc1ccc(Cl)cc1)c1cc2n(n1)CCN(c1ccc(F)cc1)C2=O (centres unmarked) [Compound 172, 2-(1-((4-chlorophenyl)amino)ethyl)-5-(4-fluorophenyl)-6,7-dihydropyrazolo[1,5-a]pyrazin-4(5H)-one]	>19	< 4.52	1.29%	–	5.81	–	–	–	–	–	–	–
O=C1c2cc(CNc3ccccc3)nn2CCN1c1ccc(F)cc1 [drawing 29 X = NH]	–	–	–	–	–	–	–	–	5.69	98%	5.88	2%
